ChEMBL document CHEMBL1201862, “PubChem BioAssay data set” (2004)
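How tested: cells in 96-well plates exposed to compound for 48 hours at five concentrations. At the GI50, growth is halved.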 Active and inactive are the calls of the source. Rule as the data show it: active = GI50 up to about 1.1 µM and inactive = higher.

Legend:
Assay in all cases: DTP human tumour cell line panel, 48 h
MDA-N = system: MDA-N
RPMI-8226 = system: RPMI-8226
Hs-578T = system: Hs-578T
SNB-19 = system: SNB-19
PC-3 = system: PC-3
A549 = system: A549
UO-31 = system: UO-31
SK-OV-3 = system: SK-OV-3
SF-539 = system: SF-539
SNB-75 = system: SNB-75
OVCAR-5 = system: OVCAR-5
SK-MEL-2 = system: SK-MEL-2
SW-620 = system: SW-620
CAKI-1 = system: CAKI-1
786-0 = system: 786-0
IGROV-1 = system: IGROV-1
HCT-15 = system: HCT-15
SN12C = system: SN12C
HOP-92 = system: HOP-92
HCT-116 = system: HCT-116
NCI-H23 = system: NCI-H23
HOP-62 = system: HOP-62
T47D = system: T47D
OVCAR-8 = system: OVCAR-8
EKVX = system: EKVX
LOX IMVI = system: LOX IMVI
BT-549 = system: BT-549
KM12 = system: KM12
A498 = system: A498
NCI-H226 = system: NCI-H226
DU-145 = system: DU-145
MCF7 = system: MCF7
RXF 393 = system: RXF 393
OVCAR-4 = system: OVCAR-4
SF-268 = system: SF-268
COLO 205 = system: COLO 205
HCC 2998 = system: HCC 2998
MDA-MB-435 = system: MDA-MB-435
HT-29 = system: HT-29
SK-MEL-5 = system: SK-MEL-5
OVCAR-3 = system: OVCAR-3
UACC-257 = system: UACC-257
NCI/ADR-RES = system: NCI/ADR-RES
NCI-H522 = system: NCI-H522
NCI-H460 = system: NCI-H460
K562 = system: K562
MDA-MB-231 = system: MDA-MB-231
Malme-3M = system: Malme-3M
ACHN = system: ACHN
MOLT-4 = system: MOLT-4
M14 = system: M14
U-251 = system: U-251
CCRF-CEM = system: CCRF-CEM
TK-10 = system: TK-10
SF-295 = system: SF-295
HL-60 = system: HL-60
UACC-62 = system: UACC-62
SK-MEL-28 = system: SK-MEL-28
SR = system: SR

## CC(C)/C(Cl)=N\OC(=O)NNc1ccccc1
MDA-N
  GI50: 20 µM (inactive)
RPMI-8226
  GI50: < 0.0247 µM (active)
Hs-578T
  GI50: 54.6 µM (inactive)
SNB-19
  GI50: 73.3 µM (inactive)
PC-3
  GI50: 0.174 µM (active)
A549
  GI50: 0.0721 µM (active)
UO-31
  GI50: 0.0178 µM (active)
SK-OV-3
  GI50: > 100 µM (inactive)
SF-539
  GI50: 29.3 µM (inactive)
SNB-75
  GI50: > 100 µM (inactive)
OVCAR-5
  GI50: > 100 µM (inactive)
SK-MEL-2
  GI50: > 32.1 µM (inactive)
SW-620
  GI50: 6.92 µM (inactive)
CAKI-1
  GI50: 14.8 µM (inactive)
786-0
  GI50: 29 µM (inactive)
IGROV-1
  GI50: 1.8 µM (inactive)
HCT-15
  GI50: 21.1 µM
SN12C
  GI50: > 48.1 µM (inactive)
HOP-92
  GI50: 16.3 µM (inactive)
HCT-116
  GI50: 1.03 µM (active)
NCI-H23
  GI50: 26.8 µM (inactive)
HOP-62
  GI50: > 43.1 µM (inactive)
T47D
  GI50: 2.35 µM (inactive)
OVCAR-8
  GI50: 0.168 µM (active)
EKVX
  GI50: 15.3 µM (inactive)
LOX IMVI
  GI50: 12.6 µM (inactive)
BT-549
  GI50: 17.5 µM (inactive)
KM12
  GI50: 1.55 µM (inactive)
A498
  GI50: 75.2 µM (inactive)
NCI-H226
  GI50: 27 µM (inactive)
DU-145
  GI50: > 100 µM (inactive)
MCF7
  GI50: 8.93 µM (inactive)
RXF 393
  GI50: > 100 µM (inactive)
OVCAR-4
  GI50: 7.48 µM (inactive)
SF-268
  GI50: > 91.4 µM (inactive)
COLO 205
  GI50: 0.119 µM (active)
HCC 2998
  GI50: 44.9 µM (inactive)
MDA-MB-435
  GI50: 1 µM (active)
HT-29
  GI50: 0.397 µM (active)
SK-MEL-5
  GI50: 0.0966 µM (active)
OVCAR-3
  GI50: > 35.8 µM (inactive)
UACC-257
  GI50: 1.3 µM (inactive)
NCI/ADR-RES
  GI50: 28.1 µM (inactive)
NCI-H522
  GI50: 12.6 µM (inactive)
NCI-H460
  GI50: < 0.01 µM (active)
K562
  GI50: < 0.01 µM (active)
MDA-MB-231
  GI50: 41.9 µM (inactive)
Malme-3M
  GI50: 15.8 µM (inactive)
ACHN
  GI50: 14.1 µM (inactive)
MOLT-4
  GI50: < 0.01 µM (active)
M14
  GI50: 3.47 µM (inactive)
U-251
  GI50: 37.6 µM (inactive)
CCRF-CEM
  GI50: < 0.0333 µM (active)
TK-10
  GI50: 68.7 µM (inactive)

## O=C1C=C(NCCOCCO)C(=O)c2c(O)ccc(O)c21
MDA-N
  GI50: 17.3 µM (inactive)
RPMI-8226
  GI50: 22.7 µM (inactive)
Hs-578T
  GI50: 34.4 µM (inactive)
SNB-19
  GI50: 32.4 µM (inactive)
PC-3
  GI50: 28.1 µM (inactive)
A549
  GI50: 28.1 µM (inactive)
SF-295
  GI50: 47.4 µM (inactive)
UO-31
  GI50: 59.8 µM (inactive)
SK-OV-3
  GI50: 33.4 µM (inactive)
SF-539
  GI50: 24 µM (inactive)
SNB-75
  GI50: 61.7 µM (inactive)
OVCAR-5
  GI50: > 100 µM (inactive)
HL-60
  GI50: 15.3 µM (inactive)
SK-MEL-2
  GI50: 20.1 µM (inactive)
SW-620
  GI50: 18.1 µM (inactive)
CAKI-1
  GI50: 43.3 µM (inactive)
786-0
  GI50: 37.4 µM (inactive)
IGROV-1
  GI50: 36.7 µM (inactive)
HCT-15
  GI50: 22.9 µM
HOP-92
  GI50: 24.3 µM (inactive)
HCT-116
  GI50: 22.5 µM (inactive)
NCI-H23
  GI50: 23.4 µM (inactive)
HOP-62
  GI50: 58.6 µM (inactive)
T47D
  GI50: 23.8 µM (inactive)
OVCAR-8
  GI50: 28.2 µM (inactive)
UACC-62
  GI50: 14.5 µM (inactive)
LOX IMVI
  GI50: 15.6 µM (inactive)
BT-549
  GI50: > 100 µM (inactive)
KM12
  GI50: 30.1 µM (inactive)
A498
  GI50: > 100 µM (inactive)
NCI-H226
  GI50: > 100 µM (inactive)
DU-145
  GI50: 99.3 µM (inactive)
MCF7
  GI50: 16 µM (inactive)
RXF 393
  GI50: 33.3 µM (inactive)
OVCAR-4
  GI50: 18 µM (inactive)
SF-268
  GI50: 31.8 µM (inactive)
COLO 205
  GI50: 17.1 µM (inactive)
HCC 2998
  GI50: 17.5 µM (inactive)
MDA-MB-435
  GI50: 18.2 µM (inactive)
HT-29
  GI50: 20.4 µM (inactive)
SK-MEL-5
  GI50: 13.2 µM (inactive)
OVCAR-3
  GI50: 23.6 µM (inactive)
UACC-257
  GI50: 20.8 µM (inactive)
NCI/ADR-RES
  GI50: 23.1 µM (inactive)
NCI-H522
  GI50: 24 µM (inactive)
NCI-H460
  GI50: 29.2 µM (inactive)
K562
  GI50: 27.9 µM (inactive)
MDA-MB-231
  GI50: 33.2 µM (inactive)
Malme-3M
  GI50: 11.9 µM (inactive)
ACHN
  GI50: 27.2 µM (inactive)
MOLT-4
  GI50: 26.1 µM (inactive)
M14
  GI50: 22.5 µM (inactive)
SK-MEL-28
  GI50: 69 µM (inactive)
U-251
  GI50: 30.5 µM (inactive)
CCRF-CEM
  GI50: 27.4 µM (inactive)
TK-10
  GI50: > 100 µM (inactive)

## N#Cc1c(N)nc(-c2ccc(Cl)cc2)c2c1-c1ccccc1S(=O)(=O)CC2
MDA-N
  GI50: > 100 µM (inactive)
RPMI-8226
  GI50: > 100 µM (inactive)
Hs-578T
  GI50: 46.1 µM (inactive)
SNB-19
  GI50: 29.1 µM (inactive)
PC-3
  GI50: > 100 µM (inactive)
A549
  GI50: > 100 µM (inactive)
UO-31
  GI50: > 100 µM (inactive)
SNB-75
  GI50: > 100 µM (inactive)
OVCAR-5
  GI50: > 100 µM (inactive)
SK-MEL-2
  GI50: > 100 µM (inactive)
SW-620
  GI50: > 100 µM (inactive)
SR
  GI50: 56.4 µM (inactive)
CAKI-1
  GI50: > 100 µM (inactive)
786-0
  GI50: 27.2 µM (inactive)
IGROV-1
  GI50: > 100 µM (inactive)
HCT-15
  GI50: > 100 µM
SN12C
  GI50: 53.7 µM (inactive)
HOP-92
  GI50: > 100 µM (inactive)
HCT-116
  GI50: > 100 µM (inactive)
NCI-H23
  GI50: 66.2 µM (inactive)
HOP-62
  GI50: 35.7 µM (inactive)
T47D
  GI50: > 100 µM (inactive)
OVCAR-8
  GI50: 34 µM (inactive)
UACC-62
  GI50: > 100 µM (inactive)
LOX IMVI
  GI50: > 100 µM (inactive)
BT-549
  GI50: 27.5 µM (inactive)
KM12
  GI50: > 100 µM (inactive)
A498
  GI50: > 100 µM (inactive)
NCI-H226
  GI50: > 100 µM (inactive)
DU-145
  GI50: 74.5 µM (inactive)
OVCAR-4
  GI50: 23.2 µM (inactive)
SF-268
  GI50: 53.6 µM (inactive)
COLO 205
  GI50: > 100 µM (inactive)
HCC 2998
  GI50: > 100 µM (inactive)
MDA-MB-435
  GI50: > 100 µM (inactive)
HT-29
  GI50: > 100 µM (inactive)
SK-MEL-5
  GI50: > 100 µM (inactive)
OVCAR-3
  GI50: > 100 µM (inactive)
UACC-257
  GI50: > 100 µM (inactive)
NCI/ADR-RES
  GI50: 52.5 µM (inactive)
NCI-H522
  GI50: 31 µM (inactive)
NCI-H460
  GI50: 45.1 µM (inactive)
K562
  GI50: > 100 µM (inactive)
MDA-MB-231
  GI50: > 100 µM (inactive)
Malme-3M
  GI50: > 100 µM (inactive)
ACHN
  GI50: > 100 µM (inactive)
M14
  GI50: > 100 µM (inactive)
SK-MEL-28
  GI50: > 100 µM (inactive)
U-251
  GI50: 37.3 µM (inactive)
TK-10
  GI50: > 100 µM (inactive)
